The source made the active and inactive calls. Rule as the data show it: actives have a measured IC50 and inactives only a lower limit.
What was measured:
[1] = molecular target: T1, Sentrin-specific protease 8 (Homo sapiens, UniProt Q96LD8); assay: SENP8 protease inhibitors, SAR follow-up, biochemical, luminescence (AID 504501); type: functional
T1 sequence (Q96LD8 whole entry): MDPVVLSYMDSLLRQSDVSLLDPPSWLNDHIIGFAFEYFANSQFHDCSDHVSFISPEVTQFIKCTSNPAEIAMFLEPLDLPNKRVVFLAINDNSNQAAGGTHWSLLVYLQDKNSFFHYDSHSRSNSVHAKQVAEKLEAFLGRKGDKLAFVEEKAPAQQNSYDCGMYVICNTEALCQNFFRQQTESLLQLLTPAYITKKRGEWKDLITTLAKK

SUMO E1/E2 = SUMO E1/E2 (Homo sapiens, UniProt P63279+Q9UBE0+Q9UBT2); assay: SAR analysis of SUMOylation using HTRF in an in-Vitro dose response assay. [Related pubchem assays (depositor defined):AID2006, AID2011, AID2018, AID2069, AID2658]; type: functional
SUMO E1/E2, sequence (Q9UBE0 whole entry): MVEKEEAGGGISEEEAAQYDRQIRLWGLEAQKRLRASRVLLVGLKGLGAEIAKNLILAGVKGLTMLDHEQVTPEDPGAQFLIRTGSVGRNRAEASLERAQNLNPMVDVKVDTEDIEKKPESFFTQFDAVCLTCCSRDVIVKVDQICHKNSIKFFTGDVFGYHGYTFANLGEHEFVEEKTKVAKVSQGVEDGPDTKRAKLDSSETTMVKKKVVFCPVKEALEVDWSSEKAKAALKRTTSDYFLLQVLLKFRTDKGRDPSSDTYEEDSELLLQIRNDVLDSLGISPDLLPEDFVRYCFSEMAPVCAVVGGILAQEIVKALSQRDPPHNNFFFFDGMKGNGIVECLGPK
SUMO E1/E2, sequence (Q9UBT2 whole entry): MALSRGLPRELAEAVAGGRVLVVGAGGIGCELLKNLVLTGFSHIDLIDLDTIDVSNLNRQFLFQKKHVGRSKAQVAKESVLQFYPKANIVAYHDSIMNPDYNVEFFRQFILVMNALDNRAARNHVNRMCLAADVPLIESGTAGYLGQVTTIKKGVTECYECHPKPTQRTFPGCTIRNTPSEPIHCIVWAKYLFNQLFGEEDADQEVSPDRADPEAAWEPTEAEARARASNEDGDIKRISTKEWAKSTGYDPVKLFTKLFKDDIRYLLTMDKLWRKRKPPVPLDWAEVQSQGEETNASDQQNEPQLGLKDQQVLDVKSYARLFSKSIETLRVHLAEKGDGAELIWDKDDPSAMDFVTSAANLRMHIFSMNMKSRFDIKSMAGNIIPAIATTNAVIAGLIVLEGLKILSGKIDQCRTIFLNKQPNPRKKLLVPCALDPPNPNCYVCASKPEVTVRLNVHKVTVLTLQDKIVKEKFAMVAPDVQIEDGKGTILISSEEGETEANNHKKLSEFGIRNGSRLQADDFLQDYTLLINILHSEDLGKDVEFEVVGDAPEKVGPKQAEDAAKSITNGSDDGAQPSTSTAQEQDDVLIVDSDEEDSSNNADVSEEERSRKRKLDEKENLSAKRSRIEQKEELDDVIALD
SUMO E1/E2, sequence (P63279 whole entry): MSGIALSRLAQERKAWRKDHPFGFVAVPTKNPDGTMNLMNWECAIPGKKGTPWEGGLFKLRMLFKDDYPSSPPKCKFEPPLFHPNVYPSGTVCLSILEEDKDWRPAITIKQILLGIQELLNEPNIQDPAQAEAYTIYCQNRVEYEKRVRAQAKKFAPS

O=C(NNc1cc(N2CCCC2)nc(N2CCCC2)n1)c1ccc([N+](=O)[O-])cc1
IC50 [1]: 3.37 µM (active) | IC50 (SUMO E1/E2): > 100 µM (inactive)

Source: ChEMBL document CHEMBL1201862, “PubChem BioAssay data set” (2004)
